# Source: publication PMC11983664, “Preclinical Pharmacokinetic Assessment of a Promising Vasorelaxant, Analgesic, and Anti‐Inflammatory Prototype 5‐[1‐(4‐Fluorophenyl)‐1H‐pyrazol‐4‐yl]‐2H‐tetrazole (LQFM020) Through Selective Bioanalytical HPLC‐PDA‐Based Method” (Biomedical Chromatography, 2025)
# Values joined by “and” are separate entries in the source; they are usually repeats but may differ in a detail not shown here. Equal entries are not always repeated. “Also recorded” adds a separate entry of the source. Where two headings read alike, the source gives them in different places.
# Assays:
# [1] = design: method as in earlier work; conditions: oral; ref Davies et al. [2000]; Dhondt et al. [2017]; Gong et al. [2012]; cited from earlier work
# [2] = Stability of LQFM020 in rat plasma (short-term, freeze-thaw, long-term); format: in vitro ADME; conditions: n = 3
# Experimental: Bioanalytical method validation was conducted in accordance with the guideline of Brazilian Health Surveillance Agency (ANVISA) RDC 27/2012, analyzing several parameters, such as matrix effect, recovery, selectivity, linearity, precision and accuracy, and stabilities (short‐term, long‐term, and freezing/thawing cycles) (ANVISA [2012]).
# Indeed, rat plasma concentrations (n = 3) of LQC and HQC presented a nonsignificant degradation below ±15% (RE), ranging from 89.2 ± 2.2% (short term) to 107.5 ± 1.8% (long term) at the end of storage condition times, as shown in Table 2.
# [3] = Pharmacokinetic study after intravenous bolus administration in rats; format: in vivo, male Wistar rats; conditions: i.v. 10 mg/kg, male adult rats; for AUC(0-t) / half-life: male, Wistar, rat, plasma, iv
# Experimental: (§1) Male Wistar rats (250–300 g) obtained from Central Vivarium of Federal University of Goiás (UFG) were housed under a 12‐h light/dark cycle (22°C–23°C), with free access to food and water. This in vivo pharmacokinetic study was conducted in accordance with Ethical Principles in Animal Research, adopted by International Guiding Principles for Biomedical Research Involving Animals and approved by the Institutional Ethics in Research Committee at the UFG (Protocol CEUA/UFG 085/17). All efforts were made to minimize animal suffering as preconized by regulatory institutions.
# (§2) LQFM020 was prepared in physiological solution containing DMSO 1% at dose of 10 mg/kg for intravenous administration (i.v., bolus), and then, blood samples (0.5 mL) were collected at 0, 0.5, 1, 2, 3, 4, 5, 6, and 24 h in heparinized microtubes. Oral administration (p.o.) was performed at LQFM020 dose of 9, 18, or 36 mg/kg prepared in physiological solution with DMSO 1%. Blood samples (0.5 mL) were collected at 0, 0.5, 1, 2, 3, 4, 5, 6, and 24 h in heparinized microtubes. Plasma samples were obtained by blood centrifugation (3000 g, 10 min) and were stored at −20°C.
# (§3) LQFM020 pharmacokinetic parameters were obtained by non‐compartmental model, including peak plasma concentration (Cmax) and time to reach it (Tmax), elimination half‐life (t1/2), elimination constant (Kel), total area under the curve of plasma concentration versus time (AUCT), apparent distribution volume (Vd), clearance (Cl), and mean residence time (MRT). These pharmacokinetic parameters were calculated by Phoenix Connect 1.3.1 software (Certara, Princeton, NJ, USA).
# [4] = Pharmacokinetic study after oral administration in rats; format: in vivo, male Wistar rats
# Experimental: as §1, §2, §3
# LQFM020 absolute oral bioavailability F(%) was obtained applying AUCT and dose (D) from p.o. and i.v. administration, according to the equation: F%=AUCp.o./AUCi.v.×Di.v./Dp.o.×100
# [5] = system: 3T3 cell; design: method as in de Oliveira et al. [2017]; conditions: 3T3 cells; ref de Oliveira et al. [2017]; cited from earlier work
# [6] = mouse, in vivo, po; cited from earlier work
# [7] = molecular target: CYP3A4 (Homo sapiens, UniProt P08684); experiment: CYP3A enzyme inhibition in vitro analysis (midazolam biotransformation, HPLC-PDA); format: in vitro ADME; conditions: LQFM020 100 μg/mL, midazolam 10 μg/mL, 37°C, 2 h
# Chain of CYP3A4 (P08684 whole entry): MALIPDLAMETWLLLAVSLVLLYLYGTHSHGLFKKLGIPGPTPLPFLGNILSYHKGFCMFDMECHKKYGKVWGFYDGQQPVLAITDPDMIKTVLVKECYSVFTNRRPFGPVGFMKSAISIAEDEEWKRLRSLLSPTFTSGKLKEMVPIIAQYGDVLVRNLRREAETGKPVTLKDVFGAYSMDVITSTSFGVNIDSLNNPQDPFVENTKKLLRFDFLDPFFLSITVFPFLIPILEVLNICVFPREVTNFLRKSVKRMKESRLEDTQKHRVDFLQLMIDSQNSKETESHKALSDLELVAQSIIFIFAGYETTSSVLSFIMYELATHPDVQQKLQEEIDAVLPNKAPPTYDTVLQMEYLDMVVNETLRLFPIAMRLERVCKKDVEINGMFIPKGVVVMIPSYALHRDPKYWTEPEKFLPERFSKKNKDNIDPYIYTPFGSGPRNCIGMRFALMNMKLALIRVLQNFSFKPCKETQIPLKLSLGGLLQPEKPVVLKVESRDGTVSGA
# Experimental: LQFM020 was evaluated for its ability to inhibit CYP3A4—the main subfamily responsible for drug metabolism in humans. […] Cold methanol was added after stirring these mixtures at 37°C for 2 h to stop the reaction and then centrifuged at 13,000 g for 10 min. The supernatant was filtered in Millex 0.22 μm pore and injected into HPLC system for the quantitation of midazolam. All samples were prepared in quintuplicate and analyzed by a HPLC‐PDA‐based method rigorously validated in our laboratory routine for the midazolam metabolites' quantification 1‐hydroxydazolam (1‐HMDZ) and 4‐hydroxydazolam (4‐HMDZ) (Ramirez De Oliveira et al. [2015]).
# [8] = individual animals 1-3, 10 mg/kg
# [9] = 10 mg/kg, individual animals 1-3
# [10] = Wistar, rat, plasma, oral 9 mg/kg, male adult rats, mean ± SEM, n = 3
# [11] = Wistar, rat, plasma, oral 18 mg/kg, male adult rats, mean ± SEM, n = 3
# [12] = Wistar, rat, plasma, oral 36 mg/kg, male adult rats, mean ± SEM, n = 3
compound,measurement,setting,value
Cc1ccc(-c2cc(C(F)(F)F)nn2-c2ccc(S(N)(=O)=O)cc2)cc1 [celecoxib],Tmax,[1],2 to 4 h
"Fc1ccc(-n2cc(-c3nn[nH]n3)cn2)cc1 [LQFM020, 5‐[1‐(4‐fluorophenyl)‐1H‐pyrazol‐4‐yl]‐2H‐tetrazole]","Stability, Accuracy (RE) (Mean ± CV%)","[2]; freeze–thaw (3 cycles), nominal 0.75 μg/mL",96.4 ± 2.6%
same,"Stability, Accuracy (RE) (Mean ± CV%)","[2]; freeze–thaw (3 cycles), nominal 15 μg/mL",96.0 ± 5.3%
same,"Stability, Accuracy (RE) (Mean ± CV%)","[2]; long duration (30 days, −20°C), nominal 0.75 μg/mL",102.1 ± 6.5%
same,"Stability, Accuracy (RE) (Mean ± CV%)","[2]; long duration (30 days, −20°C), nominal 15 μg/mL",107.5 ± 1.8%
same,"Stability, Accuracy (RE) (Mean ± CV%)","[2]; short duration (RT, 4 h), nominal 0.75 μg/mL",89.2 ± 2.2%
same,"Stability, Accuracy (RE) (Mean ± CV%)","[2]; short duration (RT, 4 h), nominal 15 μg/mL",94.5 ± 5.2%
same,AUCT,[3]; [8],1064.89 µg·h/mL and 1314.07 µg·h/mL
same,ClT/F,[3]; [8],12 mL/day/kg and 13 mL/day/kg and 10 mL/day/kg
same,Vd/F,[3]; [8],0.032 L/kg and 0.041 L/kg and 0.036 L/kg
same,t1/2,[3]; [8],3.06 h and 3.26 h
same,ClT/F,"[3]; mean ± SEM, n = 3",12 ± 0 mL/day/kg
same,Vd/F,"[3]; mean ± SEM, n = 3",0.03 ± 0.00 L/kg
same,t1/2,"[3]; mean ± SEM, n = 3, 10 mg/kg",3.05 ± 0.12 h
same,AUC(0-t),[3]; [9],1230 µg·h/mL
same,half-life,[3]; [9],2.83 h
same,AUC(0-t),"[3]; 10 mg/kg, mean ± SEM, n = 3",1220 ± 77.9 µg·h/mL
same,half-life,"[3]; 10 mg/kg, mean ± SEM, n = 3",~3 h
same,AUC(0-t),[4]; [10],69.8 ± 5.33 µg·h/mL
same,Cmax,[4]; [10],16600 ± 4410 ng/mL
same,Tmax,[4]; [10],1.66 ± 0.66 h
same,Vd/F,[4]; [10],0.86 ± 0.4 L/kg
same,half-life,"[4]; Wistar, rat, plasma, oral 9 mg/kg, male adult rats, mean ± SEM, n = 3, read-out: t1/2 (converted)",5.82 ± 2.35 h
same,AUC(0-t),[4]; [11],110 ± 17.1 µg·h/mL
same,Cmax,[4]; [11],26600 ± 2030 ng/mL
same,Tmax,[4]; [11],0.83 ± 0.17 h
same,Vd/F,[4]; [11],1.44 ± 0.36 L/kg
same,half-life,"[4]; Wistar, rat, plasma, oral 18 mg/kg, male adult rats, mean ± SEM, n = 3, read-out: t1/2 (converted)",5.85 ± 0.96 h
same,AUC(0-t),[4]; [12],287 ± 82.4 µg·h/mL
same,Cmax,[4]; [12],55200 ± 21100 ng/mL
same,Tmax,[4]; [12],1.67 ± 0.66 h
same,Vd/F,[4]; [12],1.16 ± 0.26 L/kg
same,half-life,"[4]; Wistar, rat, plasma, oral 36 mg/kg, male adult rats, mean ± SEM, n = 3, read-out: t1/2 (converted)",6.74 ± 2.47 h
same,bioavailability,"[4]; male, Wistar, plasma, oral, rat, from AUC and dose of p.o. and i.v. (10 mg/kg) administration, read-out: absolute oral bioavailability F(%)",46%
same,half-life,"[4]; male, Wistar, rat, plasma, oral administration, rats, overall, read-out: elimination half-time (t1/2) (converted)",~6 h
same,ClT,"[4]; oral 9 mg/kg, male adult rats, mean ± SEM, n = 3",158 ± 14 mL/day/kg
same,ClT,"[4]; oral 18 mg/kg, male adult rats, mean ± SEM, n = 3",230 ± 29 mL/day/kg
same,ClT,"[4]; oral 36 mg/kg, male adult rats, mean ± SEM, n = 3",216 ± 86 mL/day/kg
same,concentrations reducing 3T3 cell viability,[5],350 to 1400 µM
same,orally well tolerated dose,[6],≤ 2000 mg/kg
same,inhibition of CYP3A4 (peak areas of midazolam metabolites 1-HMDZ and 4-HMDZ vs negative control),[7],no significant effect; also recorded: absence of inhibition; also recorded: does not change the biotransformation
